# In US7122624B2, “Parathyroid hormone receptor ligands” (The United States of America as represented by the …, priority 1999, dated 2006):
# No end group written: not given here.
# Experiments:
# [1] = biological target: T1, P2-NP1 receptor (Homo sapiens, UniProt P49190+Q03431, A242R/A272V/A275H/A276I/A279I/A426C/A456S/C397H/D353E/DEL244-271/DEL429-429/DEL62-106/E317D/E431S/F287M/F327I/F461Y/G350R/G395V/I363Y/I379L/I381T/I470V/INS277[…]/K318T/K359I/L228V/L289I/L331F/L389I/L407A/L416V/L436G/L446F/M312V/M414V/M425V/M445L/N348D/N358D/P415L/Q401K/Q438E/Q440R/R282K/R390W/R396G/S308N/S341V/S356A/S370A/S433T/S473M/T273H/T286V/T325I/T349A/T427L/T430H/T435L/V235T/V283I/V326L/V334A/V338A/V340A/V342A/V365A/V372G/V432F/V439I/Y443C); test: Filtration binding assay, COS-7 membranes, P2-NP1 chimeric receptor; conditions: 10 μM GTPγS
# T1 construct: N-terminal domain and first transmembrane domain of the PTH 1 receptor fused to the remainder of the PTH2 receptor (P2-NP1); residues 172–550 of the PTH2 receptor; expressed in transfected cells; host or cells: COS-7 (transient)
# T1 sequence (Q03431+P49190 fused with the stated changes): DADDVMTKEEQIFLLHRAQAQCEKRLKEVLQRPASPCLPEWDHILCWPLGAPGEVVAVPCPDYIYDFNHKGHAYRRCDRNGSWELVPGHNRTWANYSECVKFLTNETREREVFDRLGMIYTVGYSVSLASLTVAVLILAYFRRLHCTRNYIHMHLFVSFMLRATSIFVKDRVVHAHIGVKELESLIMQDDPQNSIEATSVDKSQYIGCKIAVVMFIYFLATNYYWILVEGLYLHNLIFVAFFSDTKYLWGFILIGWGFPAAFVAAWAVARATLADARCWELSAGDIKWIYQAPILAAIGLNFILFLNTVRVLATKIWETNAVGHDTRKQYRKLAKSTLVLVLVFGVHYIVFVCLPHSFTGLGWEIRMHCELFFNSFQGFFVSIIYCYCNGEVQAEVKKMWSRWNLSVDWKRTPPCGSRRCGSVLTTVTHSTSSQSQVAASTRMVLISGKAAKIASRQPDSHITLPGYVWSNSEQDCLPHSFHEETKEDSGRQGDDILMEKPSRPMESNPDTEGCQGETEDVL
# [2] = biological target: T2, PTH2 receptor (Homo sapiens, UniProt P49190); test: Radioligand displacement binding to HEK293 cell membranes expressing the human PTH2 receptor
# T2 sequence (P49190 25-550): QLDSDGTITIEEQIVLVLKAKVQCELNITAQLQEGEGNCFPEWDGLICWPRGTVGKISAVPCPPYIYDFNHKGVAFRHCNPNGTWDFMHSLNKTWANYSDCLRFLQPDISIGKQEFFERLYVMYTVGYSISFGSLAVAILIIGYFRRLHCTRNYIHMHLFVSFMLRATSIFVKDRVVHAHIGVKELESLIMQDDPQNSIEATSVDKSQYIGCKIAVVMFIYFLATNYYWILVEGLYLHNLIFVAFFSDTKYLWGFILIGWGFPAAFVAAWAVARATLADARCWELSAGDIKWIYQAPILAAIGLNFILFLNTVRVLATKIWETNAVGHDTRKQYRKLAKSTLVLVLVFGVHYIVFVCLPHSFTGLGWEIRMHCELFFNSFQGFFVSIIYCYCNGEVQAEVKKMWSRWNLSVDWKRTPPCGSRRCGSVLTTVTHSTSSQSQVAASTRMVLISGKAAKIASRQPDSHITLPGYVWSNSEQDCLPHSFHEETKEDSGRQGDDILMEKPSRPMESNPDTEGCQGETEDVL
# Description: (§1) In these assays the binding of a range of concentrations of an unlabeled ligand was measured by displacement of radioligand binding. Three methods were employed. An assay employing centrifugation to separate bound and free radioligand was used to accurately measure ligand binding parameters. A higher-throughput method employing rapid filtration was used to generate comparative ligand binding data. […] In these assays a very low concentration of radioligand was used so that the IC50 closely approximates the ligand affinity.
# (§2) In the centrifugation assay cell membranes (45–50 μg), radioligand (100,000–300,000 cpm) and unlabeled ligand were incubated in a final volume of 1 ml assay buffer (20 mM HEPES, 100 mM NaCl, 1 mM EDTA, 3 mM MgSO4 pH 7.5, supplemented with 0.3% non-fat dried milk powder, 100 μM AEBSF and 1 μg/ml bacitracin) for two hours at 21° C. Membranes were collected at 18,000×g, the surface of the pellet gently washed and the radioactivity counted as described in Examples. […] Less than 20% of the total radioligand added was bound within the membrane pellet. […] (Greater than 50% of the total radioligand was bound if all the membrane in the incubation was from transfected cells).
# (§3) For inhibition of radioligand binding, y is the cpm bound at a given unlabeled ligand concentration, min is non-specific binding (measured in the presence of a high concentration of the unlabeled version of the radiolabeled ligand) and max is total binding (measured in the absence of unlabeled ligand).
# (§4) Binding was measured in the presence of 10 μM GTPγS to minimize complications arising from receptor-G-protein coupling, such as pseudo-irreversible binding of the agonist radioligand.
# (§5) A similar assay design was used for the PTH1 and PTH2 receptor, in which radiolabeled agonist binding was displaced by the unlabeled ligands in the presence of 10 μM GTPγS. Briefly, cell membranes (45 μg), radioligand (50,000 cpm) and unlabeled ligand were incubated in a final volume of 1 ml assay buffer (20 mM HEPES, 100 mM NaCl, 1 mM EDTA, 3 mM MgSO4 pH 7.5, supplemented with 0.3% non-fat dried milk powder, 100 μM (4-(2-aminoethyl))-benzenesulfonylflouride (AEBSF), 1 μg/ml bacitracin and 10 μM GTPγS) for two hours at 21° C. Membranes were collected at 18,000×g, the surface of the pellet gently washed and the radioactivity counted as described in Examples. […] To prevent greater than 20% of the total radioligand added from binding to the membranes, 15–20 μg of membranes from transfected cells were used, made up to 45 μg with membranes from non-transfected cells.
# [3] = biological target: T2, PTH2 receptor; test: Filtration binding assay, COS-7 membranes, wild-type PTH2 receptor; set-up: expressed in transfected cells; host or cells: COS-7 (transient), pcDNA1/Amp; conditions: 10 μM GTPγS
# [4] = biological target: T3, P1-NP2 receptor (Homo sapiens, UniProt P49190+Q03431, A289V/A293V/A295V/A297V/A304T/A311S/A320V/A325S/A362L/C381A/C397Y/D272E/D303N/D313N/DEL207-232/E308D/E392Q/F286L/F386V/F400L/G327V/G351R/G390L/H202T/H204A/H352C/H384T/I205A/I234A/I238V/I244L/I280T/I282F/I314K/I344L/I393V/INS200[…]/INS383Y/K237R/K356Q/L281V/L334I/L370P/L382T/L389T/L399M/M242F/M427S/N263S/R199A/R305G/R394Q/S385E/S410A/T192V/T273K/T336I/T387S/V185L/V201A/V241T/V267M/V296S/V350G/V369M/V371L/V380M/V424I/W345R/Y318I/Y415F); test: Filtration binding assay, COS-7 membranes, P1-NP2 chimeric receptor; conditions: 10 μM GTPγS
# T3 construct: the N-terminal domain and first transmembrane domain of the PTH2 receptor fused to the remainder of the PTH1 receptor (P1-NP2); exchanging residues 215–594 of the PTH1 receptor; expressed in transfected cells; host or cells: COS-7 (transient)
# T3 sequence (P49190+Q03431 fused with the stated changes): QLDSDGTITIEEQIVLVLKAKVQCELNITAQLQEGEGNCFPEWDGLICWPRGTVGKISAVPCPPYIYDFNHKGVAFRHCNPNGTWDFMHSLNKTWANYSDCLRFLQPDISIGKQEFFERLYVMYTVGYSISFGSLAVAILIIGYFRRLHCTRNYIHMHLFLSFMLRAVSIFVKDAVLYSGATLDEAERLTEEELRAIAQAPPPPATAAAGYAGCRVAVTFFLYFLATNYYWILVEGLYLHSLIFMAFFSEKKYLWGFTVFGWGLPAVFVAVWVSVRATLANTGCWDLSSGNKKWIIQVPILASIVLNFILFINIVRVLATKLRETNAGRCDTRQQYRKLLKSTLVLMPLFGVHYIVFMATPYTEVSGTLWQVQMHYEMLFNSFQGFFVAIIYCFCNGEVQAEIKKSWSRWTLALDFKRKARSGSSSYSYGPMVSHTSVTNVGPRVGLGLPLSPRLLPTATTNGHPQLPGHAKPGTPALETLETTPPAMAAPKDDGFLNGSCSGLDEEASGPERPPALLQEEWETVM
# [5] = system: PTH1 receptor; test: Filtration binding assay, COS-7 membranes, wild-type PTH1 receptor; set-up: species or system human; conditions: 10 μM GTPγS
# [6] = biological target: T4, human PTH1 receptor (Homo sapiens, UniProt Q03431); test: Radioligand displacement binding to HEK293 cell membranes expressing the human PTH1 receptor
# T4 sequence (Q03431 27-593): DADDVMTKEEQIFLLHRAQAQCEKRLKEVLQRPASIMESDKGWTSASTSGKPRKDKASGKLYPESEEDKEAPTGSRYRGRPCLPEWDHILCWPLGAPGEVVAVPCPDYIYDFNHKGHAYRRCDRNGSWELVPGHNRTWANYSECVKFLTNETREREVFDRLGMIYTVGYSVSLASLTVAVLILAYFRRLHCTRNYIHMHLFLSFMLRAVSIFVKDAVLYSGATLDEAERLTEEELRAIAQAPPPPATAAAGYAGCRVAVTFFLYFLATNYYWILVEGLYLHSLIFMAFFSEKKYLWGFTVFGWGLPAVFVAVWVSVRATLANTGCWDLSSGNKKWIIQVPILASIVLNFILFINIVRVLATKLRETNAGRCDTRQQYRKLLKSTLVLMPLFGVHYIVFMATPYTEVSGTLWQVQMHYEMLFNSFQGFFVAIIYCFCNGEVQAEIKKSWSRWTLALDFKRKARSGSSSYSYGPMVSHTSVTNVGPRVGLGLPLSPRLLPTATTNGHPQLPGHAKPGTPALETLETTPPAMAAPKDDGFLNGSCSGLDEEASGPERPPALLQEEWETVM
# Description: as §1, §2, §3, §4, §5
# [7] = biological target: T4, human PTH1 receptor; test: cAMP accumulation in HEK293 cells stably expressing the human PTH1 receptor (293PTH1); type: cell-based; set-up: expressed in transfected cells; conditions: 293PTH1 cells, cAMP
# [8] = biological target: T5, C-terminal hemaglutinin-tagged human PTH1 receptor (Homo sapiens, UniProt Q03431); test: cAMP accumulation in COS-7 cells expressing a C-terminal hemaglutinin-tagged human PTH1 receptor; type: cell-based
# T5 sequence (Q03431 27-593): T4 sequence (Q03431 27-593)
# [9] = biological target: T4, human PTH1 receptor; test: Intracellular calcium concentration in Fluo-4-loaded HEK293 cells expressing the human PTH1 receptor; type: cell-based; set-up: expressed in transfected cells
# Description: HEK293 cells stably expressing the PTH1 receptor were seeded in wells of a 96-well plate at 100,000 cells per well. The following day, medium was removed and the cells washed once with 0.1 ml Dulbecco's phosphate buffered saline containing 1 mM Ca^2+ and 1 mM Mg^2+ (DPBS). Cells were then loaded with 5 μM Fluo-4 acetoxymethyl ester, with 0.1% (w/v) Pluronic F-127 and 2.5 mM probenecid in DPBS for 1 hour at 37° C. Following two washes with DPBS supplemented with 0.1% BSA, cells were incubated in 0.1 ml of the same buffer for 30 min at 37° C. This buffer was then removed and 50 μl pre-warmed DPBS with BSA added. Baseline fluorescence was then measured for 80 sec at 37° C. in a Cytofluor 4,000 multiwell plate fluorimeter (PerSpective Biosystems, Framington, Mass.) (excitation wavelength […], emission wavelength […]). Test agents were then added and fluorescence monitored as before. Fluorescence was measured in duplicate wells of cells for each experimental condition. Cytosolic free calcium concentration ([Ca^2+]i) was calculated using the equation: [Ca^2+]i=KD(F−Fmin)/(Fmax−F) where KD is the ion dissociation constant (345 nM) for the indicator and F the fluorescence signal in arbitrary units. Fmax (maximum fluorescence at Ca^2+-saturation of the indicator) was determined by addition of 130 μM ionomycin and Fmin (background fluorescence) measured after addition of 20 mM EGTA.
# [10] = biological target: T4, human PTH1 receptor; test: cAMP accumulation in COS-7 cells transiently expressing the human PTH1 receptor; conditions: for Kb: pKB as concentration
# Description: (§6) COS-7 cells were grown as previously described in Clark et al. For cAMP accumulation assays COS-7 cells were transfected as previously described in Clark et al. except that transfections were performed in 10 cm tissue culture dishes using 10 μg of plasmid DNA. The cells were transferred following trypsinization to 96-well plates at a density of 50,000 cells/well the following day. Cells were used for cAMP accumulation assays three days after transfection.
# (§7) Ligand-stimulated accumulation of cAMP was measured as described in Examples, using a radioimmunoassay to quantify cAMP (Clark et al., supra).
# Slightly different procedures were used depending on the experimental paradigm. […] This buffer was removed and replaced with 40 μl fresh buffer. Test agents were added in a volume of 10 μl and the cells incubated for an additional 40 min at 37° C. The assay was then terminated by the addition of 50 μl 0.1 N HCl, 0.1 mM CaCl2. […] After a further 40 minutes at 37° C. the assay was terminated as described above. […] The buffer was removed and the following solutions added sequentially: 30 μl buffer containing plasma, 10 μl antagonist in buffer and 10 μl rPTH(1–34) in buffer. The cells were incubated at 37° C. for 40 minutes prior to assay termination. Human plasma was prepared by addition of EDTA to whole blood at a final concentration of 10 mM followed by centrifugation at 1,000×g for 10 minutes. The plasma supernatant was collected and stored in aliquots at −80° C. before use. cAMP was quantified using a RIA as previously described (Clark et al., supra).
# For cAMP accumulation data y is the amount of cAMP produced at a given peptide concentration, min is the cAMP level in the absence of ligand, max is the maximum level produced and K is the log EC50.
# The pA2 was subsequently converted to a pKB value by fixing n at unity in the linear regression analysis.
# [11] = biological target: T2, PTH2 receptor; test: cAMP accumulation in HEK293 cells stably expressing the human PTH2 receptor (293PTH2); type: cell-based; set-up: expressed in transfected cells; conditions: 293PTH2 cells
# Description: as §6, §7
# For cAMP accumulation data y is the amount of cAMP produced at a given peptide concentration, min is the cAMP level in the absence of ligand and max is the maximum level produced. […] Statistical comparison of multiple means was performed initially by single-factor analysis of variance followed by post-hoc analysis with the Newman-Keuls test. Statistical comparison of two means was performed using a two-tailed Student's t-test.
# [12] = biological target: T6, rat PTH1 receptor (Rattus norvegicus, UniProt P25961); test: cAMP accumulation in COS-7 cells transiently expressing the rat PTH1 receptor; type: cell-based; conditions: 3.2 μM TIP(7–39), agonist rPTH(1–34); read-out: pKB as concentration (converted)
# T6 construct: expressed in transfected cells; host or cells: COS-7 (transient)
# T6 sequence (P25961 27-591): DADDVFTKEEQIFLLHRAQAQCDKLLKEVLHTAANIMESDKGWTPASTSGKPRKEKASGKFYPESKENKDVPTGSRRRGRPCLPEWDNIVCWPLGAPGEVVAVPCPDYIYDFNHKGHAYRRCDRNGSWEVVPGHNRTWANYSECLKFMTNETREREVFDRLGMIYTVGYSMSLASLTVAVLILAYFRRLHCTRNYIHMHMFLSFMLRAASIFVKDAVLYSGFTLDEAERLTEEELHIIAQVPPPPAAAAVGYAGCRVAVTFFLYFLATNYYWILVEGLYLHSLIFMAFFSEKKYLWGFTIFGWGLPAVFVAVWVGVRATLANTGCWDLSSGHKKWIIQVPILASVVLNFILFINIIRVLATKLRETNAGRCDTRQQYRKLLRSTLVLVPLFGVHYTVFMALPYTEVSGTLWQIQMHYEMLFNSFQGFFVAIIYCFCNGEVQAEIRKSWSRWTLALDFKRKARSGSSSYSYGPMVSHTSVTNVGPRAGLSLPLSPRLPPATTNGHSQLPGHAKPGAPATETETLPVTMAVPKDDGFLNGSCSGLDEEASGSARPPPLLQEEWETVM
molecule,measurement,setting,value
Nc1nc2c(ncn2[C@@H]2O[C@H](COP(=O)(O)OP(=O)(O)OP(O)(O)=S)[C@@H](O)[C@H]2O)c(=O)[nH]1 [GTPγS],reduction of radioligand binding,[1],69±6%
same,reduction of [125I]TIP39 binding,"[2]; 10 μM GTPγS, filtration assay",62±2%
same,reduction of radioligand binding,[3],53±4%
same,reduction of radioligand binding,[4],63±1%
same,reduction of radioligand binding,[5],5±2%
DAAFRERARLLAALERRHWLNSYMHKLLVLDAP [TIP(7–39)],"greater selectivity for the PTH1 receptor than [D-Tryp12, Tyr34]PTH(7–34) or PTHrP(7–34)","[6]; PTH1 over PTH2 receptor, 10 μM GTPγS",5.5 fold
same,higher affinity than TIP39,"[6]; filtration assay, no GTPγS",5.6 fold
same,higher affinity than TIP39,[6]; presence of 10 μM GTPγS,12 fold
same,affinity for the PTH1 receptor,[6]; summary statement,< 10 nM
same,activation of the PTH1 receptor,[7],did not detectably stimulate cAMP accumulation
same,activation of adenylyl cyclase activity,[8],did not detectably activate adenylyl cyclase activity
same,level of cAMP accumulation,"[8]; 3.2 μM TIP(7–39), without ligand 0.95±0.04",0.91±0.04 pmol/well
same,reduction of peak [Ca2+]i increase,[9]; TIP(7–39) 1 μM against rPTH(1–34) 3 nM,79±1%
same,change in [Ca2+]i,"[9]; TIP(7–39) 1 μM, rPTH(1–34) 3 nM",No change in [Ca^2+]i
same,accumulation of cAMP in the absence of agonist,[10]; 240 nM TIP(7–39),2.0±0.05 pmol/well
same,accumulation of cAMP in the absence of agonist,[10]; 760 nM TIP(7–39),2.2±0.05 pmol/well
same,accumulation of cAMP in the absence of agonist,[10]; 2.4 μM TIP(7–39),2.5±0.7 pmol/well
same,effect of human plasma on antagonist potency,[10]; 20% human plasma,did not reduce the antagonist potency
same,Schild slope,[10]; inhibition of rPTH(1–34)-stimulated cAMP,0.99±0.24
same,Kb,[10]; agonist PTHrP(1–34),110 nM
same,Kb,"[10]; agonist rPTH(1–34), Schild analysis",150 nM
same,lower affinity than full-length TIP39,"[2]; filtration assay, no GTPγS (receptor-G-protein complex)",70 fold
same,lower binding potency than full-length TIP39,[2]; presence of 10 μM GTPγS,32 fold
same,ligand-stimulated cAMP accumulation,[11],loss of detectable ligand-stimulated cAMP accumulation
same,Kb,[12],310 nM
